The text below walks through data of patent US5436238A, “Halichondrins and related compounds” (President and Fellows of Harvard College, priority 1993, dated 1995).

In one assay the test system is LOX human melanoma cells. The experiment in a line: In vitro growth inhibition, LOX melanoma cells. The format is cell-based. Particulars: Table 1, LOX, synthetic halichondrin B. As to the method: (§1) Synthetic halichondrin B I was tested in growth inhibition assays against several different tumor cell lines to obtain IC50 values. For comparison, the National Cancer Instititute reported growth inhibitory effects of natural halichondrin B against L1210 murine leukemia cells at IC50 =0.3 nM [J. Biol. Chem. 266:15882-15889 (1991)] and Hirata and Uemura reported IC50 =0.08 nM against B-16 murine melanoma cells [Pure Appl. Chem. 58:701-710 (1986)]. Both references are hereby incorporated in their entirety.
In addition, several synthetic halichondrin-related compounds were tested. […] For the structures of compounds 13-16, see FIG. 3.

The next assay deals with HL-60 cells. The assay can be described thus: In vitro growth inhibition, HL-60 monocytic leukemia cells. Format: cell-based. To be noted: HL-60, human monocytic leukemia. Here is the method: as §1
In another assay the test system is HT-29 cells. The experiment in a line: In vitro growth inhibition, HT-29 colon carcinoma cells. The format is cell-based. Particulars: HT-29, human colon carcinoma. As to the method:
as §1

The subject of a further assay is DK-l cells. The assay can be described thus: In vitro growth inhibition, DK-l ras-transforming fibroblasts. Format: cell-based. Particulars: human ras-transforming fibroblasts. As to the method: as §1
The subject of the next assay is SK-OV-3 cells. The assay can be described thus: In vitro growth inhibition, SK-OV-3 ovarian carcinoma cells. The format is cell-based. Particulars: SK-OV-3, human ovarian carcinoma. Here is the method: as §1
The subject of a further assay is Caov-3 cells. The experiment in a line: In vitro growth inhibition, Caov-3 ovarian carcinoma cells. Format: cell-based. Particulars: Caov-3, human ovarian carcinoma. Here is the method:
as §1

For another assay, the system named is OVCA 433 cells. The experiment in a line: In vitro growth inhibition, OVCA 433 ovarian carcinoma cells. Format: cell-based. Particulars: OVCA 433, human ovarian carcinoma. As to the method: as §1
The subject of a further assay is NIH:OVCAR-3 cells. The assay can be described thus: In vitro growth inhibition, NIH:OVCAR-3 ovarian carcinoma cells. The format is cell-based. To be noted: NIH:OVCAR-3, human ovarian carcinoma. As to the method: as §1
A further assay has as its system MCF-7 cells. The experiment in a line: In vitro growth inhibition, MCF-7 breast carcinoma cells. The format is cell-based. Particulars: MCF-7, human breast carcinoma. As to the method:
as §1

The next assay relates to MG-63 cells. The assay can be described thus: In vitro growth inhibition, MG-63 osteosarcoma cells. Particulars: MG-63, human osteosarcoma. Format: cell-based. As to the method: as §1
Assay [1] concerns subcutaneous LOX human melanoma tumors. The assay can be described thus: In vivo anti-tumor effect on subcutaneous LOX human melanoma tumors in nude mice. As to the method:
Mice received 1×10^6 LOX cells via s.c. injection on day 0, with complete injection randomization across sexes and treatment groups. On days 3-7 and 10-14, male and female experimental mice received 25 μg/kg of synthetic halichondrin B 1 via i.p. injection in saline; controls received saline alone.

Assay [2] deals with L1210 murine leukemia cells. Particulars: natural halichondrin B, J. Biol. Chem. 266:15882-15889 (1991), read-out: growth inhibitory effects, IC50; cited from earlier work.
Assay [3] has as its system B-16 murine melanoma cells. To be noted: Pure Appl. Chem. 58:701-710 (1986), read-out: IC50 against B-16 cells; cited from earlier work.

Each structure is given as a SMILES string.

For `C=C1C[C@@H]2CC[C@@]34C[C@H]5O[C@H]6[C@@H](O3)[C@H]3O[C@H](CC[C@@H]3O[C@H]6[C@H]5O4)CC(=O)O[C@@H]3[C@@H](C)[C@@H]4O[C@@H]5C[C@]6(C[C@@H]7O[C@]8(C[C@H](C)[C@@H]9O[C@H]([C@@H](O)C[C@@H](O)CO)C[C@@H]9O8)C[C@H](C)[C@@H]7O6)O[C@@H]5C[C@@H]4O[C@H]3C[C@H]3O[C@@H](CC[C@@H]1O2)C[C@@H](C)C3=C` [halichondrin B], the half-inhibitory concentration (IC50) in the assay on LOX human melanoma cells turned out to be 0.08 nM; in the assay with HL-60 cells, 0.12 nM; in the assay on HT-29 cells it was 0.19 nM; in the assay on DK-l cells, 0.18 nM; in the assay with SK-OV-3 cells, 0.12 nM; in the assay with Caov-3 cells it was 0.25 nM. The IC50 in the assay on OVCA 433 cells is 0.16 nM; in the assay on NIH:OVCAR-3 cells it was 0.06 nM; with MCF-7 cells, 0.2 nM; with MG-63 cells, 0.13 nM; in assay [2], 0.3 nM; in assay [3] it was 0.08 nM. Moreover, the tumor growth result in [1] (25 μg/kg i.p. in saline, days 3-7 and 10-14, both sexes) is listed as “prevented tumor growth almost completely in both sexes”. Moreover, the “tumor growth after initial development period” value in assay [1] (25 μg/kg i.p., days 3-7 and 10-14, after initial development into visible but very small tumors) is “failed to grow after an initial period of development into visible but very small tumors”. Besides, in [1] (25 μg/kg i.p., after the initial development period), the tumor regression entry is listed as “actually regressed”.

By IC50 is commonly meant the point on the concentration scale where inhibition reaches its midpoint.
